Patent publication US20210337839A1, “SYSTEM AND METHOD FOR RECO[…]” (Restrain Company Limited, priority 2020, published 2021)

Test system: fontane variety of potatoes
Protocol: There now follows a description of an experimental trial by the inventors
The goal of the trial was to recondition French fry tubers in a 2-3 week period to improve fry colour and maintain brittle sprouts.
3 trial cells were operated, each 85 cubic meters in size and holding fontane variety of potatoes. The stores holding each trial cell stores were warmed to 12.5° C.
A sample was taken from each cell. Each sample was made up of 25 tubers from the front and the back of the store. The tubers selected were showing signs of sprouting in some degree and have had variable and in some cases poor fry color results.
The first sample was sent for a benchmark Soleye fry colour measurement. Soleye is an optical colour reader used to determine fry colour.
Gradually reducing the ethylene level by 0.5 ppm per day from […] @ 12 C
First 7 days 4 ppm and from day 8 reduced to continuous 2 ppm @ 12 C

`C=C` [ethylene] was tested, and the “Soleye fry colour score (the lower the score, the better the fry colour)” value (after reconditioning, samples from store 64: continuous 2 ppm ethylene @ 12 C, FIG. 3) was 0 and the “sprout condition following reconditioning” value (cells 56, 60 and 64, ethylene programmes at 12 C, 2-3 week period, all tubers) was “maintained brittle sprouts”.
